In patent US10058566B2, “Sulfated polygulonic acid polysaccharide or pharmaceutical salt thereof, preparation method therefor and use thereof” (SHANGHAI INSTITUTE OF MATERIA MEDICA CHINESE ACADEMY OF …, priority 2013, dated 2018):

How the values were obtained:
[1] = system: human breast cancer MDA-MB-435 orthotopic xenografts; assay: Growth of human breast cancer MDA-MB-435 orthotopic xenografts in nude mice; assay type: in vivo, nude mice (BALB/cA); details: 5 mg/kg, intravenous injection once per week for 7 continuous weeks
Method: (§1) Human breast cancer MDA-MB-435 cells (from American Type Culture Collection, ATCC, Rockville, Md., USA) in an exponential growth phase at a concentration of 2.5×10^7 cells/ml were inoculated into the second left mammary fat pad of 4-5-week old female nude mice (BALB/cA, provided by Shanghai Institute of Materia Medica, Chinese Academy of Sciences). When the tumors were grown to the size of 100-200 mm^3, the animals were evenly divided according tumor volumes into a negative control group, a doxorubicin injection (Adriamycin, ADM) treatment group (positive control group), and 5 mg/kg and 20 mg/kg PGAS treatment groups (PGAS experimental groups), 20 mice/group. […] In the experiments, a vernier caliper was used to measure the diameter of tumors twice a week, and the tumor volume (V) was calculated following the formula below: V=½×a×b^2
in which, a and b represent the length and the width of tumors, respectively. The relative tumor volume (RTV) was calculated based on the measured results, using the calculation formula: RTVt=Vt/Vo; in which, V0 is the measured tumor volume when animals were divided to different dosing (i.e. d0), and Vt is the tumor volume on the day of measurement. […]
(§2) At this point of time, the animals are sacrificed and subjected to anti-tumor effect evaluation. […] Further, the effect of PGAS on angiogenesis in vivo was evaluated by immunohistochemical staining.

[2] = system: lung metastasis of human breast cancer MDA-MB-435 orthotopic xenografts; assay: Lung metastasis of human breast cancer MDA-MB-435 orthotopic xenografts; assay type: in vivo, nude mice (BALB/cA); details: 5 mg/kg, intravenous injection once per week for 7 continuous weeks
Method: as §1
The animals were sacrificed 1 week after discontinuation of dosing. […] The number of lung metastasis nodes per lung was observed and recorded under a dissecting microscope. […] A part of lungs and orthotopic tumor tissues were fixed in 10% formalin, and angiogenesis in tumor tissues was determined by H&E staining and immunohistochemistry.
as §2

COc1cccc2c1C(=O)c1c(O)c3c(c(O)c1C2=O)C[C@@](O)(C(=O)CO)C[C@@H]3O[C@H]1C[C@H](N)[C@H](O)[C@H](C)O1 [ADM, Doxorubicin]
relative tumor proliferation rate T/C [1]: 21.8% | inhibition rate on lung metastasis [2]: 89.8%
